According to patent US20260226101A1, “PEPTIDE WITH ANTI-INFLAMMATORY AND ANTI-MICROBIAL ACTIVITY” (priority 2023, published 2026):
Ends that are not written are not given here.

Columns and labels:
Experiment in all cases: Time-kill assay
Assay type in all cases: cell-based
[1] = tested on: Escherichia coli ATCC 8739; settings: E. coli
Experimental: (§1) The survival of bacteria, time kill efficacy assay of IS 111 was further evaluated for activity against bacterial strain mentioned above according to CLSI reference method, with slightly modification. MICs were determined by broth microdilution assay as described above. […] Test tubes of MHB without test compound IS 111 were used as vehicle controls. Overnight cultures of the bacterial strains at cell densities of approximately 1×10^8 CFU/ml were used to inoculate both test and control tubes. The standard tube dilution method was opted to evaluate the time-kill efficacy of bacteria. Bacterial inoculum (1 mL) was diluted by adding 9 mL sterile saline solution and serially diluted up to 10^−3. […] 100 μL incubated suspension was transferred on the agar plates and spread through the spreader. Colony counts were performed after 24 h incubation at 37° C. Plates with 10-300 colonies were used for these counts, and the kill rate was determined by plotting log 10 viable counts (CFU/ml) against time. Bactericidal activity was defined as a ≥3 log 10 decreases in CFU/ml of the initial microbial population, while bacteriostatic activity was defined was defined as a <3 log 10 decrease in CFU/ml. The assay was performed in triplicate [Olufunmiso O Olajuyigbe et al., 2015; Sutthiwan Thammawat et al., 2017]
(§2) The time-kill kinetics antibacterial study of the Peptide IS 111 was carried out to assess the killing rate of the compound within a given contact time. The survival of bacteria, time kill efficacy assay of IS 111 was further evaluated for activity against Escherichia coli ATCC 8739 and Staphylococcus aureus ATCC 6538, Pseudomonas aeruginosa ATCC 9027 and Klebsiella pneumoniae ATCC 700603 according to CLSI reference method, with slightly modification. MICs were determined by broth microdilution assay as described above. […] 10. Test tubes of MHB without test compound Peptide IS 111 were used as vehicle controls. Overnight cultures of the bacterial strains at cell densities of approximately 1×10^6 CFU/ml were used to inoculate both test and control tubes.
(§3) After each interval, ten-fold dilutions were prepared with normal saline, and 100 μL incubated suspension was transferred on the agar plates and spread through the spreader. Colony counts were performed after 24 h incubation at 37° C. Plates with 10-300 colonies were used for these counts, and the kill rate was determined by plotting log 10 viable counts (CFU/ml) against time. Bactericidal activity was defined as a ≥3 log 10 decrease in CFU/ml of the initial microbial population, while bacteriostatic activity was defined as a <3 log 10 decrease in CFU/ml. The assay was performed in triplicate. The proportion of cells surviving at 60 min was calculated, as was the mean and standard deviation. Proportions of surviving cells were compared using Student's 2-tailed t-test, assuming unequal variance and differences were considered significant where p≤0.05.

[2] = tested on: Staphylococcus aureus ATCC 6538; settings: S. aureus
Experimental: as §1, §2, §3

[3] = tested on: Pseudomonas aeruginosa ATCC 9027; settings: P. aeruginosa
Experimental: as §1, §2, §3

FAKKFAK [IS 111, Phe-Ala-Lys-Lys-Phe-Ala-Lys]
Viable count ([1]; 0.5 × MIC, 0 h): 6.4 ± 0.48 1 × 10^5 CFU/ml | Viable count ([1]; 0.5 × MIC, 1 h): 5.5 ± 0.28 1 × 10^5 CFU/ml | Viable count ([1]; 0.5 × MIC, 2 h): 5.0 ± 0.20 1 × 10^5 CFU/ml | Viable count ([1]; 0.5 × MIC, 3 h): 4.2 ± 0.10 1 × 10^5 CFU/ml | Viable count ([1]; 0.5 × MIC, 4 h): 3.7 ± 0.08 1 × 10^5 CFU/ml | Viable count ([1]; 0.5 × MIC, 5 h): 2.9 ± 0.35 1 × 10^5 CFU/ml | Viable count ([1]; 0.5 × MIC, 12 h): 2.5 ± 0.35 1 × 10^5 CFU/ml | Viable count ([1]; 0.5 × MIC, 24 h): 2.3 ± 0.43 1 × 10^5 CFU/ml | Reduction in viability ([1]; 0.5×MIC (0.78 μg/ml), 24 h): 2 log 10 CFU/ml | Type of activity (bacteriostatic or bactericidal) ([1]; 0.5×MIC and 1×MIC, 24 h): bacteriostatic | Viable count ([1]; 1 × MIC, 0 h): 6.5 ± 0.10 1 × 10^5 CFU/ml | Viable count ([1]; 1 × MIC, 1 h): 4.2 ± 0.45 1 × 10^5 CFU/ml | Viable count ([1]; 1 × MIC, 2 h): 2.1 ± 0.38 1 × 10^5 CFU/ml | Viable count ([1]; 1 × MIC, 3 h): 1.2 ± 0.28 1 × 10^5 CFU/ml | Viable count ([1]; 1 × MIC, 4 h): 0.6 ± 0.20 1 × 10^5 CFU/ml | Viable count ([1]; 1 × MIC, 5 h): 0.4 ± 0.10 1 × 10^5 CFU/ml | Viable count ([1]; 1 × MIC, 12 h): 0.2 ± 0.08 1 × 10^5 CFU/ml | Viable count ([1]; 1 × MIC, 24 h): 0 1 × 10^5 CFU/ml | Time to complete reduction of initial inoculum ([1]; 1×MIC): 24 h | Viable count ([1]; 5 × MIC, 0 h): 6.5 ± 0.23 1 × 10^5 CFU/ml | Viable count ([1]; 5 × MIC, 1 h): 0.5 ± 0.05 1 × 10^5 CFU/ml | Viable count ([1]; 5 × MIC, 2 h): 0.2 ± 0.05 1 × 10^5 CFU/ml | Viable count ([1]; 5 × MIC, 3 h): 0 1 × 10^5 CFU/ml | Viable count ([1]; 5 × MIC, 4 h): 0 1 × 10^5 CFU/ml | Viable count ([1]; 5 × MIC, 5 h): 0 1 × 10^5 CFU/ml | Viable count ([1]; 5 × MIC, 12 h): 0 1 × 10^5 CFU/ml | Viable count ([1]; 5 × MIC, 24 h): 0 1 × 10^5 CFU/ml | Viable count ([2]; 0.5 × MIC, 0 h): 5.1 ± 0.65 1 × 10^5 CFU/ml | Viable count ([2]; 0.5 × MIC, 1 h): 4.6 ± 0.48 1 × 10^5 CFU/ml | Viable count ([2]; 0.5 × MIC, 2 h): 3.8 ± 0.68 1 × 10^5 CFU/ml | Viable count ([2]; 0.5 × MIC, 3 h): 3.2 ± 0.58 1 × 10^5 CFU/ml | Viable count ([2]; 0.5 × MIC, 4 h): 2.5 ± 0.58 1 × 10^5 CFU/ml | Viable count ([2]; 0.5 × MIC, 5 h): 2.1 ± 0.43 1 × 10^5 CFU/ml | Viable count ([2]; 0.5 × MIC, 12 h): 1.8 ± 0.43 1 × 10^5 CFU/ml | Reduction in viability ([2]; 0.5×MIC (1.56 μg/ml), 24 h): 2 log 10 CFU/ml | Type of activity (bacteriostatic or bactericidal) ([2]; 0.5×MIC, 24 h): bacteriostatic | Viable count ([2]; 0.5×MIC, 24 h): 1.2 ± 0.23 1 × 10^5 CFU/ml | Viable count ([2]; 1 × MIC, 0 h): 5.3 ± 0.10 1 × 10^5 CFU/ml | Viable count ([2]; 1 × MIC, 1 h): 3.7 ± 0.43 1 × 10^5 CFU/ml | Viable count ([2]; 1 × MIC, 2 h): 1.6 ± 0.48 1 × 10^5 CFU/ml | Viable count ([2]; 1 × MIC, 3 h): 0.7 ± 0.15 1 × 10^5 CFU/ml | Viable count ([2]; 1 × MIC, 4 h): 0.3 ± 0.15 1 × 10^5 CFU/ml | Viable count ([2]; 1 × MIC, 5 h): 0.2 ± 0.00 1 × 10^5 CFU/ml | Viable count ([2]; 1 × MIC, 12 h): 0 1 × 10^5 CFU/ml | Viable count ([2]; 1 × MIC, 24 h): 0 1 × 10^5 CFU/ml | Time to bacteriostatic activity ([2]; 1×MIC (3.13 μg/ml)): ≤ 12 h | Viable count ([2]; 5 × MIC, 0 h): 5.6 ± 0.30 1 × 10^5 CFU/ml | Viable count ([2]; 5 × MIC, 1 h): 0.8 ± 0.13 1 × 10^5 CFU/ml | Viable count ([2]; 5 × MIC, 2 h): 0.4 ± 0.08 1 × 10^5 CFU/ml | Viable count ([2]; 5 × MIC, 3 h): 0 1 × 10^5 CFU/ml | Viable count ([2]; 5 × MIC, 4 h): 0 1 × 10^5 CFU/ml | Viable count ([2]; 5 × MIC, 5 h): 0 1 × 10^5 CFU/ml | Viable count ([2]; 5 × MIC, 12 h): 0 1 × 10^5 CFU/ml | Viable count ([2]; 5 × MIC, 24 h): 0 1 × 10^5 CFU/ml | Time to bacteriostatic activity ([2]; 5×MIC (15.6 μg/ml)): ≤ 2 h | Viable count ([3]; 0.5 × MIC, 0 h): 6.3 ± 0.30 1 × 10^5 CFU/ml | Viable count ([3]; 0.5 × MIC, 1 h): 5.4 ± 0.18 1 × 10^5 CFU/ml | Viable count ([3]; 0.5 × MIC, 2 h): 4.9 ± 0.15 1 × 10^5 CFU/ml | Viable count ([3]; 0.5 × MIC, 3 h): 4.1 ± 0.20 1 × 10^5 CFU/ml | Viable count ([3]; 0.5 × MIC, 4 h): 3.5 ± 0.15 1 × 10^5 CFU/ml | Viable count ([3]; 0.5 × MIC, 5 h): 2.8 ± 0.23 1 × 10^5 CFU/ml | Viable count ([3]; 0.5 × MIC, 12 h): 2.4 ± 0.15 1 × 10^5 CFU/ml | Reduction in viability ([3]; 0.5×MIC (1.56 μg/ml), 24 h): 1 log 10 CFU/ml | Type of activity (bacteriostatic or bactericidal) ([3]; 0.5×MIC, 24 h): bacteriostatic | Viable count ([3]; 0.5×MIC, 24 h): 2.1 ± 0.25 1 × 10^5 CFU/ml | Viable count ([3]; 1 × MIC, 0 h): 6.4 ± 0.15 1 × 10^5 CFU/ml | Viable count ([3]; 1 × MIC, 1 h): 4.0 ± 0.30 1 × 10^5 CFU/ml | Viable count ([3]; 1 × MIC, 2 h): 1.9 ± 0.20 1 × 10^5 CFU/ml | Viable count ([3]; 1 × MIC, 3 h): 1.0 ± 0.08 1 × 10^5 CFU/ml | Viable count ([3]; 1 × MIC, 4 h): 0.5 ± 0.08 1 × 10^5 CFU/ml | Viable count ([3]; 1 × MIC, 5 h): 0.2 ± 0.05 1 × 10^5 CFU/ml | Viable count ([3]; 1 × MIC, 12 h): 0.0 1 × 10^5 CFU/ml | Viable count ([3]; 1 × MIC, 24 h): 0.0 1 × 10^5 CFU/ml | Time to bacteriostatic activity ([3]; 1×MIC (3.13 μg/ml)): ≤ 12 h | Viable count ([3]; 5 × MIC, 0 h): 6.4 ± 0.15 1 × 10^5 CFU/ml | Viable count ([3]; 5 × MIC, 1 h): 0.4 ± 0.10 1 × 10^5 CFU/ml | Viable count ([3]; 5 × MIC, 2 h): 0.0 1 × 10^5 CFU/ml | Viable count ([3]; 5 × MIC, 3 h): 0.0 1 × 10^5 CFU/ml | Viable count ([3]; 5 × MIC, 4 h): 0.0 1 × 10^5 CFU/ml | Viable count ([3]; 5 × MIC, 5 h): 0.0 1 × 10^5 CFU/ml | Viable count ([3]; 5 × MIC, 12 h): 0.0 1 × 10^5 CFU/ml | Viable count ([3]; 5 × MIC, 24 h): 0.0 1 × 10^5 CFU/ml
